Measured values published in patent US11078519B2, “Bioluminescent assays utilising secreted luciferases” (GENE STREAM PTY LTD., priority 2006, dated 2021).
One block for each molecule: values may come before it.

Assays:
[1] = system: non-secreted Gaussia luciferase; assay: Kinetic luminescence assay of non-secreted Gaussia luciferase in HeLa cell lysate with reducing agent in assay buffer; format: biochemical; conditions: for decay in luminescent signal over time compared with absence of reducing agent: all concentrations tested: DTT 4-50 mM, β-mercaptoethanol 10-100 mM, TCEP 500 uM or 5 mM, FIGS. 1A, 1B
Description: HeLa cells stably expressing non-secreted and destabilized Gaussia luciferase were plated onto 96-well plates and incubated overnight. The non-secreted luciferase is a modified Gaussia luciferase in which the 14 amino acid N-terminal signal peptide has been deleted. The destabilised luciferase is an enzyme containing a destabilising element such that it has a shortened half-life and is expressed at lower steady-state level than in the absence of the destabilising element.
Following the overnight incubation, medium was removed and the cells lysed in 20 ul lysis buffer comprising 25 mM Tris pH 8.1, 150 mM NaBr, 1 mM EDTA, 63.4 uM sodium oxalate, 0.1% NP40 substitute, 5% glycerol (GSv3). Luciferase activity was measured in a kinetic assay following injection of 60 ul of an assay buffer comprising 25 mM Tris pH 8.1; 1 mM EDTA, 2 mM Ascorbate and 26 uM Cz (STD), or the same assay buffer but also containing a reducing agent. Various concentrations of three reducing agents were used: DTT (4 mM, 10 mM, 20 mM or 50 mM); β-mercaptoethanol (10 mM, 20 mM, 50 mM, or 100 mM); and TCEP (500 uM or 5 mM). […] The effect was strongest at higher concentrations of a given reducing agent. […] The inventors have determined that this higher concentration produced beneficial effects in terms of bioluminescence generated by Gaussia luciferase. […]

[2] = system: non-secreted Metridia luciferase; assay: Kinetic luminescence assay of non-secreted Metridia luciferase in HeLa cell lysate; format: biochemical; conditions: up to 120 minutes
Text: (§1) HeLa cells were transiently transfected with expression plasmids encoding either Gaussia or Metridia luciferases in either their native secreted form or a modified non-secreted form. Secreted Metridia luciferase was obtained from Clontech and non-secreted Metridia luciferase was created in an analogous way to non-secreted Gaussia luciferase. The coding region was obtained by PCR using primers that delete the first 16 amino acids after ATG (the secretion signal) and the stop codon. The PCR product was ligated into a pRR23.1 plasmid (GeneStream, AU) to create a non-secreted but destabilized Metridia luciferase.
One day after transfection conditioned medium was removed for the secreted luciferases and the non-secreted luciferases were lysed as described in Example 1. Aliquots (20 ul) of conditioned medium or lysate were assayed for luciferase activity in kinetic assays following manual injection of assay buffer comprising the indicated concentrations of DTT in 25 mM Tris pH 7.75; 1 mM EDTA; 2 mM Ascorbic acid and 26 uM coelenterazine.
Experiments were performed as described in Example 5 for the non-secreted Gaussia and Metridia luciferases, except that the reducing agents used were: dithioerythritol (DTE) (FIGS. 6A and 6D); sodium sulfite (FIG. 6B); cysteamine (FIGS. 6C and 6E); TCEP (FIG. 6F); and β-mercaptoethanol (FIG. 6G).

[3] = system: wild-type secreted Gaussia luciferase; assay: Kinetic luminescence assay of secreted Gaussia luciferase in conditioned medium; format: biochemical
Description: Similar experiments were performed as described in Example 1 with the exception that the effect of DTT on the time course of luminescence was also investigated for the wild-type secreted Gaussia luciferase. This was achieved by transiently transfecting HeLa cells with a reporter plasmid encoding the wild-type Gaussia luciferase protein and harvesting the conditioned medium 24 hrs later. The assay buffer (with either 50 mM DTT or no DTT) was injected into wells containing 20 ul of the conditioned medium. Results were expressed as the % signal remaining compared to time zero (see FIG. 3).
as §1
One day after transfection conditioned medium was removed for the secreted luciferases and the non-secreted luciferases were lysed as described in Example 1. […]

[4] = target: T1, intracellular Renilla luciferase (Renilla reniformis, UniProt P27652); assay: Kinetic luminescence assay of Renilla luciferase in HeLa cell lysate; format: biochemical; conditions: 50 mM DTT in assay buffer; FIG. 4
T1 construct: expressed in transfected cells; host or cells: HeLa, transient; cell lysate
T1 sequence (P27652 1-311): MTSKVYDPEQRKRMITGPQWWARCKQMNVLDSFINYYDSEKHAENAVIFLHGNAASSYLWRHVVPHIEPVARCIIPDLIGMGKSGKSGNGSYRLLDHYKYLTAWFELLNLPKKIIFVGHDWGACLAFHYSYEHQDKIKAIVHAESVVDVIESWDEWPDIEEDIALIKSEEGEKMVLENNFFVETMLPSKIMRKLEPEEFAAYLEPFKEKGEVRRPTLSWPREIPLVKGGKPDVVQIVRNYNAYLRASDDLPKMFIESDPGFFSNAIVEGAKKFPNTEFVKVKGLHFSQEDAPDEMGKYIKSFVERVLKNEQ
Description: Similar experiment to those described in Example 1 were performed, with the exception that the HeLa cells transiently expressed the intracellular Renilla luciferase. A kinetic assay was performed after injection of assay buffer (with 50 mM DTT or no DTT) into wells containing 20 ul of lysate.

[5] = system: secreted Metridia luciferase; assay: Kinetic luminescence assay of secreted Metridia luciferase in conditioned medium; format: biochemical; conditions: varying DTT in assay buffer; up to 120 minutes; FIG. 5D
Text: as §1, with “Metridia luciferase. One day after transfection conditioned medium was removed for the secreted luciferases and the non-secreted luciferases were lysed as described in Example 1. Aliquots (20 ul) of conditioned medium or lysate were assayed for luciferase activity in kinetic assays following manual injection of assay buffer comprising the indicated concentrations of DTT in 25 mM Tris pH 7.75; 1 mM EDTA; 2 mM Ascorbic acid and 26 uM coelenterazine.” for “Metridia luciferase.”

[6] = system: non-secreted and destabilized Gaussia luciferase; assay: Dual-luciferase assay (Gaussia then firefly) in HeLa cell lysate; format: biochemical; conditions: Gaussia assay buffer with 50 mM DTT; FIG. 8
Description: HeLa cells stably expressing both a non-secreted and destabilized Gaussia luciferase and a destabilized firefly luciferase were plated onto 96-well plates and incubated overnight. Medium was removed and the cells lysed in 20 ul of the lysis buffer described in Example 1. Light emission was measured for 1 sec in a luminometer at the following times: immediately before addition of assay buffer (LB=background signal in absence of substrate); immediately after addition of Gaussia assay buffer (Ga) comprising 25 mM Tris pH 8.1; 1 mM EDTA, 2 mM Ascorbate, 23.6 uM Cz and 50 mM DTT; 15 mins after addition of Ga assay buffer (15 mins); and subsequently at 1 sec after addition of 60 ul of a firefly assay buffer (FF) comprising 25 mM Tris pH 7.35, 6 mM MgSO4, 36 mM DTT, 0.11 mM EDTA, 0.58 mM ATP, 0.3 mM CoA, 0.52 mM Luciferin, 1 mg/ml BSA. The results shown in FIG. 8 illustrate a strong Gaussia luciferase bioluminescent signal that can be measured in a flash reaction but which decays to background levels within approximately 15 mins without intervention or the need to add quenching reagents. Subsequent addition of a firefly reagent allows measurement of the firefly signal, thus completing a dual-luciferase assay.

[7] = system: secreted Gaussia luciferase; assay: Secreted Gaussia luciferase signal in cell lysate, lysis buffer with DTT; format: biochemical; conditions: 50 mM DTT in lysis buffer; 2 hour time-point, without doxycycline; FIG. 11B
Description: To test this hypothesis, HeLa cells were co-transfected with plasmids TRE-Rn and CMV-Ga (wild type, secreted), either alone or in combination. The latter provides constitutive expression of secreted Gaussia luciferase, whilst the former provides a doxycycline-repressible expression of intracellular Renilla luciferase. The cells were incubated overnight, the medium was removed and the cells rinsed once before addition of a fresh aliquot of medium either with or without 2 ug/ml doxycyline. At 2, 6 and 24 hrs later, samples of conditioned medium were taken. The cells were rinsed in fresh medium before being lysed using lysis buffer comprising 25 mM Tris pH 8.1, 150 mM NaBr, 1 mM EDTA, 63.4 uM sodium oxalate, 0.1% NP40 substitute, 5% glycerol; either with or without 50 mM DTT. 20 ul aliquots of conditioned medium and cell lysate were then assayed for luciferase activity following addition of 60 ul of assay buffer comprising 25 mM Tris pH 7.75; 1 mM EDTA; 2 mM Ascorbic acid and 26 uM coelenterazine.

[8] = Background luminescent signal in lysate of non-transfected HeLa cells; conditions: DTT in assay buffer
Description: (§2) Non-transfected HeLa cells and HeLa cells expressing non-secreted Gaussia luciferase were subjected to luciferase assays as follows. Cells were plated in equal aliquots onto a 96-well plate and incubated overnight. Medium was removed and cells lysed in 20 ul of the lysis buffer described in Example 1. Forty minutes later, light emission was measured using a Wallac Victor 3 luminometer (Perkin Elmer) immediately before and after injection of 60 ul of assay buffer comprised 25 mM Tris pH 8.1, 23.6 uM coelenterazine, 1 mM EDTA, 2 mM ascorbate plus the indicated concentration of DTT (see FIG. 8).

[9] = system: non-secreted Gaussia luciferase; assay: Flash intensity of non-secreted Gaussia luciferase in HeLa cell lysate; format: biochemical; conditions: 50 mM DTT in assay buffer; FIG. 12C
Description: as §2

[10] = system: destabilised, non-secreted Gaussia luciferase; conditions: 5 mM glutathione (3:2 reduced:oxidized); fresh buffer; FIG. 15
Description: HeLa cells expressing a destabilised, non-secreted Gaussia luciferase were plated in equal aliquots onto 96-well plates and incubated overnight. The same lysis buffer was used for all samples. Luciferase activity was measured using fresh assay buffer containing the total amounts of glutathione (3:2 ratio of reduced:oxidized) indicated in FIG. 15. The assay buffers were then stored at room temperature for 7 hrs or at 4° C. for 22 hrs and used again to measure replicate samples.

[11] = system: destabilised, non-secreted Gaussia luciferase; conditions: fresh assay buffer with glutathione; FIG. 14
Description: HeLa cells expressing a destabilised, non-secreted Gaussia luciferase were plated in equal aliquots onto 96-well plates and incubated overnight. The same lysis buffer was used for all samples. […] The assay buffers were then stored at room temperature for 4 hrs and used again to measure replicate samples.

[12] = varying concentrations of reducing agent, up to 50 minutes, FIGS. 6D-6G
[13] = varying concentrations of reducing agent, FIGS. 6A-6C

Structure (SMILES): O[C@H](CS)[C@@H](O)CS [DTE, dithioerythritol]
light emission over time [1, 12]: rapid decline in light emission | light emission over time [2, 13]: rapid decline in light emission

Structure (SMILES): O[C@H](CS)[C@H](O)CS [DTT, dithiothreitol]
light emission over time (% signal remaining compared to time zero) ([1]; 50 mM DTT in assay buffer, modified non-secreted form, FIG. 3): very rapid decline in light emission | time for signal to drop to approximately background levels (~100 RLU) ([1]; DTT 50 mM to 500 mM, all concentrations, FIG. 2B): ≤ 10 min | rate of decay in luminescent signal versus concentration ([1]; DTT 50 mM to 500 mM, FIG. 2A): directly related to the concentration of DTT | light emission after addition during glow phase (% of light units at time zero) ([1]; DTT added 40 minutes after initiation of reaction, FIG. 7): rapid decline in light emission | light emission during the first few seconds after injection of the reducing agent ([1]; DTT added during glow phase, FIG. 7): lack of any significant decay in light emission | decay in luminescent signal over time compared with absence of reducing agent [1]: more rapid decay in luminescent signal | initial signal intensity ([1]; up to 50 mM DTT): does not cause any reduction in initial signal intensity | light emission over time ([1]; varying DTT in assay buffer, up to 120 minutes, FIG. 5A): very rapid decline in light emission | light emission over time (% signal remaining compared to time zero) ([3]; 50 mM DTT in assay buffer, native secreted form, conditioned medium, FIG. 3): very rapid decline in light emission | light emission over time ([3]; varying DTT in assay buffer, up to 120 minutes, FIG. 5B): very rapid decline in light emission | kinetics of light emission [4]: prolongs the light emission | light emission over time ([2]; varying DTT in assay buffer, FIG. 5C): very rapid decline in light emission | light emission over time [5]: very rapid decline in light emission | time for Gaussia luciferase signal to decay to background levels [6]: ≤ 15 min | signal in the lysate of cells expressing only Gaussia luciferase [7]: no signal was detected | reduction in the background signal generated by the assay buffer ([8]; after subtraction of the pre-read, FIG. 12B): more than 80% | reduction in the overall background signal ([8]; raw RLU after injection, FIG. 12A): more than 50% | true luciferase signal in flash reactions [9]: does not reduce the true luciferase signal

Structure (SMILES): O=C(O)CCP(CCC(=O)O)CCC(=O)O [TCEP, tris(2-carboxyethyl)phosphine]
decay in luminescent signal over time compared with absence of reducing agent [1]: more rapid decay in luminescent signal | light emission over time [1, 12]: rapid decline in light emission

Structure (SMILES): NCCS [cysteamine]
light emission over time [1, 12]: rapid decline in light emission | light emission over time [2, 13]: rapid decline in light emission

initial activity of assay buffer [10]: initial activity was reduced | baseline activity of the fresh buffers [11]: reduces the assay buffer activity
Structure (SMILES): N[C@@H](CCC(=O)N[C@@H](CS)C(=O)NCC(=O)O)C(=O)O [glutathione]

Structure (SMILES): O=S([O-])[O-].[Na+].[Na+] [sodium sulfite]
light emission over time [2, 13]: rapid decline in light emission

Structure (SMILES): OCCS [β-mercaptoethanol]
decay in luminescent signal over time compared with absence of reducing agent [1]: more rapid decay in luminescent signal | light emission over time [1, 12]: rapid decline in light emission
